Experimental data reported in patent US8741934B2, “Inhibitors of ion channels” (Pfizer Limited, priority 2007, dated 2014).

Target: T1, hSCN3A sodium channels (Homo sapiens, UniProt Q9NY46)
T1 construct: expressed in transfected cells
Assay: hSCN3A electrophysiology, whole-cell patch-clamp or PatchXpress 7000, estimated IC-50 (Table B)
Assay type: cell-based
Conditions: estimated IC-50; hSCN3A cells, whole-cell patch-clamp or PatchXpress 7000; read-out: SCN3A EIC-50
Method: Human Embryonic Kidney (HEK) cells were transfected with an hSCN3A construct using lipofectamine reagent (Invitrogen), using standard techniques. […] Clones were screened for expression using the whole-cell voltage-clamp technique.
HEK cells stably transfected with hSCN3A were maintained in DMEM medium supplemented with 10% heat-inactivated fetal bovine serum and 400 μg/ml G418 sulfate in an incubator at 37° C. with a humidified atmosphere of 10% CO2. […] For electrophysiological studies, cells were removed from the culture flask by brief trypsinization and replated at low density onto glass cover slips. Cells were typically used for electrophysiological experiments within 24 to 72 h after plating.
All recordings were made at room temperature (22-24° C.) using AXOPATCH 200B amplifiers and PCLAMP software (Axon Instruments, Burlingame, Calif.) or PatchXpress 7000 hardware and associated software (Axon Instruments, Burlingame, Calif.).
Current records were acquired at 20 to 50 KHz and filtered at 5 to 10 KHz.
HEK cells stably transfected with hSCN3A were viewed under Hoffman contrast optics and placed in front of an array of flow pipes emitting either control or compound-containing extracellular solutions. All compounds were dissolved in dimethyl sulfoxide to make 10 mM stock solutions, which were then diluted into extracellular solution to attain the final concentrations desired.
The voltage-dependence of inactivation was determined by applying a series of depolarizing prepulses (8 sec long in 10 mV increments) from a negative holding potential. The voltage was then immediately stepped to 0 mV to assess the magnitude of the sodium current. Currents elicited at 0 mV were plotted as a function of prepulse potential to allow estimation of the voltage midpoint of inactivation (V1/2). Cells were then voltage clamped at the empirically determined V1/2.
Compounds were tested for their ability to inhibit hSCN3A sodium channels by activating the channel with a 20 msec voltage step to 0 mV following an 8 second conditioning prepulse to the empirically determined V1/2 (Table B). Compound effect (% inhibition) was determined by difference in current amplitude before and after application of test compounds. […] Inhibition values <20% and >80% were excluded from the calculation.
In some cases electrophysiological assays were conducted with PatchXpress 7000 hardware and associated software (Molecular Devices Corp) (Table B). All assay buffers and solutions were identical to those used in conventional whole-cell voltage clamp experiments described above. hSCN3A cells were grown as above to 50%-80% confluency and harvested by trypsinization. Trypsinized cells were washed and resuspended in extracellular buffer at a concentration of 1×10^6 cells/ml. The onboard liquid handling facility of the PatchXpress was used for dispensing cells and application of test compounds. Determination of the voltage midpoint of inactivation was as described for conventional whole-cell recordings. Cells were then voltage-clamped to the empirically determined V1/2 and current was activated by a 20 msec voltage step to 0 mV.

T1 sequence (Q9NY46 whole entry): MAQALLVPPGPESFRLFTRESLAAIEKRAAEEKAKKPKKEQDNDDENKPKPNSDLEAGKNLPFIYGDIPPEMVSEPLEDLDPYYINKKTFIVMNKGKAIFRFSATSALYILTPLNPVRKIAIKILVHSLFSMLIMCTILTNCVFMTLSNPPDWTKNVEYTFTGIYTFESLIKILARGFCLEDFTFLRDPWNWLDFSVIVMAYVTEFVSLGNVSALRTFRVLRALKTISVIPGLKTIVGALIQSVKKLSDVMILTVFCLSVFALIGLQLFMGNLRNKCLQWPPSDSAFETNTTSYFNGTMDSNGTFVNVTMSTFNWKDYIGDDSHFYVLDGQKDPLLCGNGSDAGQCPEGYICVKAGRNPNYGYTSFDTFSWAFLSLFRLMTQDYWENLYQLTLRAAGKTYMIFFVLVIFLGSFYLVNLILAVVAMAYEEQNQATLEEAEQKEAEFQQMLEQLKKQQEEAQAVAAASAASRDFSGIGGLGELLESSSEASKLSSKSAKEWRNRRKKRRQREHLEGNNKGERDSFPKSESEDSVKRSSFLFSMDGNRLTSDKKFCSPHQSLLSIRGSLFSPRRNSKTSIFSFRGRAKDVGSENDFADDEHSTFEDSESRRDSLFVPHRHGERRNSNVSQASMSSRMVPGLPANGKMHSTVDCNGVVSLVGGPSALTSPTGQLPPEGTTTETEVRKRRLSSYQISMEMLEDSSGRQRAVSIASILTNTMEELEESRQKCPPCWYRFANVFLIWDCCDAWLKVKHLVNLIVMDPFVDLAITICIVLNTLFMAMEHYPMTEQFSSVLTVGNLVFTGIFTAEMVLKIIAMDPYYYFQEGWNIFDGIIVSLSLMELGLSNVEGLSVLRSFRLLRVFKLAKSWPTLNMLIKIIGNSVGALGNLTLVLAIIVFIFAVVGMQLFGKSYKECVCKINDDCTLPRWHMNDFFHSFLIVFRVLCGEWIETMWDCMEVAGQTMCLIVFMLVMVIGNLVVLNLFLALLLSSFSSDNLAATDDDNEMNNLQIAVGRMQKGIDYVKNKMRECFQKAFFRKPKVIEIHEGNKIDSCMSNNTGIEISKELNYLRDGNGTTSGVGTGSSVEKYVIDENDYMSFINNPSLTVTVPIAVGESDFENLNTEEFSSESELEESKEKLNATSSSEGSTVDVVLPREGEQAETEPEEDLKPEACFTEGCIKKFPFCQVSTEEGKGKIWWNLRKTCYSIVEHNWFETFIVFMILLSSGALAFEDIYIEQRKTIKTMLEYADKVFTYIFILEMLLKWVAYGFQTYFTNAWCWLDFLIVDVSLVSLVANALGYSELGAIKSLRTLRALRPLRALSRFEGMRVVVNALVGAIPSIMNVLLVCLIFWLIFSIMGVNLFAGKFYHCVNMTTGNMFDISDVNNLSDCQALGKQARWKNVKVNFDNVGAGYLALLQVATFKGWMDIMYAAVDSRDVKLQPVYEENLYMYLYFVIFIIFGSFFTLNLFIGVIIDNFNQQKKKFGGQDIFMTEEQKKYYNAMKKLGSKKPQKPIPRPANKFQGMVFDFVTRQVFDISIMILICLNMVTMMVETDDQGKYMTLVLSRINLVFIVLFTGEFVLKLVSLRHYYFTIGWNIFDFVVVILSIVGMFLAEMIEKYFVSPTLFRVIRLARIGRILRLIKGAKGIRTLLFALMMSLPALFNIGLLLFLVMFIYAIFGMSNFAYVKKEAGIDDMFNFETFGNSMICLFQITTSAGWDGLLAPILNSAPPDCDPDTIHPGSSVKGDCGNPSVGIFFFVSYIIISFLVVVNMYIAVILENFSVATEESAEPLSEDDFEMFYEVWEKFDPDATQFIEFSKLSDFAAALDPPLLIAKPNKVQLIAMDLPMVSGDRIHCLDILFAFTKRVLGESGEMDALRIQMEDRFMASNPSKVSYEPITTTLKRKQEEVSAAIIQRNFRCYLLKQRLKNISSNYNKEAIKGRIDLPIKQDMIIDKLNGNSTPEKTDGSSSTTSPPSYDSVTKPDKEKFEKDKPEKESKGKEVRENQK

| SMILES | IC50 [nM] |
| --- | --- |
| COc1ccc(CNC(=O)c2ccc(S(=O)(=O)Nc3nccs3)cc2)cc1Cl [Example 405, N-(3-chloro-4-methoxybenzyl)-4-[(1,3-thiazol-2-ylamino)sulfonyl] benzamide] | 60 |
| O=C(c1ccc(S(=O)(=O)Nc2nccs2)cc1)N1CCCC(Cc2ccc(F)cc2)C1 (stereo not shown) [Example 222, 4-{[3-(4-Fluorobenzyl)piperidin-1-yl]carbonyl}-N-1,3-thiazol-2-yl-benzenesulfonamide] | 980 |
| O=C(c1ccc(S(=O)(=O)Nc2nccs2)cc1)N1CCCCC1c1ccccc1 (stereo not shown) [Example 239, 4-[(2-Phenylpiperidin-1-yl)carbonyl]-N-1,3-thiazol-2-yl-benzenesulfonamide] | 2970 |
| COc1ccccc1C1CCCN1C(=O)c1ccc(S(=O)(=O)Nc2nccs2)cc1 (stereo not shown) [Example 254, 4-{[2-(2-Methoxyphenyl)pyrrolidin-1-yl]carbonyl}-N-1,3-thiazol-2-yl-benzenesulfonamide] | > 1000 |
| CC(C)(NC(=O)c1ccc(S(=O)(=O)Nc2nccs2)cc1)c1cccc(C(F)(F)F)c1 [Example 125, N-{1-methyl-1-[3-(trifluoromethyl)phenyl]ethyl}-4-[(1,3-thiazol-2-ylamino)sulfonyl]benzamide] | 6450 |
| Cc1ccc(C2(O)CCN(C(=O)c3ccc(S(=O)(=O)Nc4nccs4)cc3)CC2)cc1 [Example 252, 4-{[4-Hydroxy-4-(4-methylphenyl)piperidin-1-yl]carbonyl}-N-1,3-thiazol-2-yl-benzenesulfonamide] | 2110 |
| O=C(NCc1ccc(C(F)(F)F)c(F)c1)c1ccc(S(=O)(=O)Nc2nccs2)c(F)c1 [Example 304, 3-Fluoro-N-[3-fluoro-4-(trifluoromethyl)benzyl]-4-[(1,3-thiazol-2-yl-amino)sulfonyl]benzamide] | 70 |
| O=C(NCc1ccc(Cl)cc1C(F)(F)F)c1ccc(S(=O)(=O)Nc2nccs2)cc1 [Example 406, N-[4-chloro-2-(trifluoromethyl)benzyl]-4-[(1,3-thiazol-2-ylamino)sulfonyl] benzamide] | 260 |
| O=C(NCc1cccc(OC(F)(F)F)c1)c1ccc(S(=O)(=O)Nc2nccs2)cc1F [Example 335, 2-Fluoro-4-[(1,3-thiazol-2-ylamino)sulfonyl]-N-[3-(trifluoromethoxy)benzyl]benzamide] | 200 |
| O=C(NCc1ccc(F)cc1C(F)(F)F)c1ccc(S(=O)(=O)Nc2nccs2)cc1 [Example 80, N-[4-fluoro-2-(trifluoromethyl)benzyl]-4-[(1,3-thiazol-2-ylamino)sulfonyl]benzamide] | > 100 |
| O=C(NCc1ccc(Cl)c(Cl)c1)c1ccc(S(=O)(=O)Nc2nccs2)c(F)c1 [Example 297, N-(3,4-dichlorobenzyl)-3-fluoro-4-[(1,3-thiazol-2-ylamino)sulfonyl]benzamide] | 60 |
| Cc1ccc(OC2CCCN(C(=O)c3ccc(S(=O)(=O)Nc4nccs4)cc3)C2)cc1 (stereo not shown) [Example 249, 4-{[3-(4-mMethylphenoxy)piperidin-1-yl]carbonyl}-N-1,3-thiazol-2-yl-benzenesulfonamide] | 1660 |
| O=C(NCc1ccc(OC(F)(F)F)c(F)c1)c1ccc(S(=O)(=O)Nc2nccs2)c(F)c1 [Example 305, 3-Fluoro-N-[3-fluoro-4-(trifluoromethoxy)benzyl]-4-[(1,3-thiazol-2-ylamino)sulfonyl]benzamide] | 60 |
| O=C(NCc1ccc(Cl)c(F)c1)c1ccc(S(=O)(=O)Nc2nccs2)cc1F [Example 334, N-(4-chloro-3-fluorobenzyl)-2-fluoro-4-[(1,3-thiazol-2-ylamino)sulfonyl] benzamide] | 340 |
| COc1ccc(NC(=O)c2ccc(S(=O)(=O)Nc3nccs3)cc2)cn1 [Example 177, N-(6-methoxypyridin-3-yl)-4-[(1,3-thiazol-2-ylamino)sulfonyl]benzamide] | 5670 |
| O=C(NCc1ccc(OC(F)(F)F)c(F)c1)c1ccc(S(=O)(=O)Nc2ncns2)c(F)c1 [Example 318, 3-Fluoro-N-[3-fluoro-4-(trifluoromethoxy)benzyl]-4-[(1,2,4-thiadiazol-5-ylamino)sulfonyl]benzamide] | 140 |
